Test results from patent publication US20240209004A1, “BORIC ACID DERIVATIVE ACTING AS Beta-LACTAMASE INHIBITOR” (TUOJIE BIOTECH (SHANGHAI) CO., LTD., priority 2021, published 2024).
In brackets after ≈: the same amount, converted by molar mass. Where two headings read alike, the source gives them in different places.

Legend:
Assay type in all cases: cell-based
[1] = tested on: cefepime-resistant Escherichia coli; assay: MIC in combination with cefepime for drug-resistant bacteria (Test Example 2); settings: for MIC: Escherichia coli, with CPM 8 μg/mL, read-out: concentration for achieving a bacteriostatic effect where the CPM MIC is fixed at 8 μg/mL
Protocol: (§1) The biosafety cabinet was sterilized with ultraviolet light for 30 min. Glycerol tubes were taken out of a −80° C. freezer, and streaks were gently formed in the glycerol tubes using inoculating loops. Bacteria were inoculated onto MHIIA solid plates. The plates were incubated overnight in a 37° C. incubator.
(§2) 30 μL of compound stock solution was added to column 1 of a 96-well v-bottom plate, and DMSO was added to columns 2-10. Subsequently, 15 μL was transferred from column 1 to column 2 using a pipette and well mixed gently, and then 15 μL of solution was transferred from column 2 to column 3; the serial dilution process proceeded to column 10 (200×β-lactamase inhibitor working solutions were prepared). The antibiotic was diluted with a corresponding solvent to form a 1.6 mg/mL solution.

[2] = tested on: cefepime-resistant Klebsiella pneumoniae; assay: as above; settings: for MIC: Klebsiella pneumoniae, with CPM 8 μg/mL, read-out: concentration for achieving a bacteriostatic effect where the CPM MIC is fixed at 8 μg/mL
Protocol: as §1, §2

[3] = tested on: cefepime-resistant Pseudomonas aeruginosa; assay: as above; settings: read-out: concentration for achieving a bacteriostatic effect where the CPM MIC is fixed at 8 μg/mL
Protocol: as §1, §2

[4] = tested on: cefepime-resistant Acinetobacter baumannii; assay: as above; settings: Acinetobacter baumannii, with CPM 8 μg/mL, read-out: concentration for achieving a bacteriostatic effect where the CPM MIC is fixed at 8 μg/mL
Protocol: as §1, §2

[5] = tested on: Klebsiella pneumoniae ATCC BAA-2472; assay: MIC of β-lactamase inhibitors in the presence of antibiotic (Test Example 1)
Protocol: (§3) • 1) The antibiotics cefepime and biapenem (purchased from MCE Inc.).
as §1
as §2, with “3:” for “3;”, “two antibiotics were” for “antibiotic was”, “with” for “with a”, “solvents” for “solvent”, “form” for “form a”, “solutions.” for “solution.”
(§4) 1 μL of 200×B-lactamase inhibitor solution and 1 μL of 1.6 mg/mL antibiotic were added to a new 96-well round-bottom plate. The plate that had been incubated overnight was taken out of the incubator, and several monoclones were picked into normal saline using an inoculating loop. The bacterial solution was adjusted to a concentration of about 1.0×10^8CFU/mL and diluted 200-fold with medium, and 198 μL of the resulting bacterial solution was added to the test plate. The test plate was incubated in a 37° C.incubator for 18-24 h. The 96-well plate that had been incubated for 20 h was taken out of the incubator. The concentration that prevented visible bacterial growth was defined as the minimum inhibitory concentration.

[6] = tested on: Escherichia coli ARLG-2829 (Urine); assay: as above; settings: in the presence of Cefepime (8 ug/mL)
Protocol: as §3, §1
as §2, with “3:” for “3;”, “two antibiotics were” for “antibiotic was”, “with” for “with a”, “solvents” for “solvent”, “form” for “form a”, “solutions.” for “solution.”
as §4

[7] = tested on: Klebsiella pneumoniae ATCC BAA-1705; assay: as above
Protocol: as §3, §1
as §2, with “3:” for “3;”, “two antibiotics were” for “antibiotic was”, “with” for “with a”, “solvents” for “solvent”, “form” for “form a”, “solutions.” for “solution.”
as §4

[8] = tested on: cefepime-resistant Klebsiella pneumoniae expressing different types of β-lactamases; assay: microbe, parasite or virus in culture; settings: for MIC: Klebsiella pneumoniae; for MIC, Cefepime + compound (8 ug/ml): inhibitor at 8 ug/ml
Protocol: as §1
as §2, with “3:” for “3;”

[9] = summary in words of Test Example 2
[10] = in the presence of Biapenem (8 ug/mL)
[11] = in the presence of Cefepime (8 ug/mL)

SMILES: O=C(O)c1c(F)ccc2c1OB(O)[C@@H]1C[C@H]21 [QPX-7728]
- MIC ([1]; strain FDA-CDC AR-BANK#0055): 0.5 µg/mL
- MIC ([1]; strain FDA-CDC AR-BANK#0114): ≤ 0.0156 µg/mL
- MIC ([1]; strain FDA-CDC AR-BANK#0370): 0.125 µg/mL
- MIC ([1]; strain FDA-CDC AR-BANK#0371): ≤ 0.0156 µg/mL
- restoring to cefepime antibacterial activity against cefepime-resistant Escherichia coli [1, 9]: significantly restore to cefepime antibacterial activity
- MIC ([2]; strain FDA-CDC AR-BANK#0003): 0.0312 µg/mL
- MIC ([2]; strain FDA-CDC AR-BANK#0076): 0.25 µg/mL
- MIC ([2]; strain FDA-CDC AR-BANK#0080): 0.5 µg/mL
- MIC ([2]; strain FDA-CDC AR-BANK#0126): ≤ 0.0156 µg/mL
- MIC ([2]; strain FDA-CDC AR-BANK#0158): 0.5 µg/mL
- restoring to cefepime antibacterial activity against cefepime-resistant Klebsiella pneumoniae [2, 9]: significantly restore to cefepime antibacterial activity
- MIC ([3]; strain FDA-CDC AR-BANK#0246, with CPM 8 μg/mL): > 16 µg/mL
- MIC ([3]; strain FDA-CDC AR-BANK#0439, with CPM 8 μg/mL): > 16 µg/mL
- MIC ([3]; strain FDA-CDC AR-BANK#0441, with CPM 8 μg/mL): 2 µg/mL
- MIC ([3]; strain FDA-CDC AR-BANK#0444, with CPM 8 μg/mL): 4 µg/mL
- MIC ([4]; strain FDA-CDC AR-BANK#0033): > 16 µg/mL
- MIC ([4]; strain FDA-CDC AR-BANK#0035): > 16 µg/mL
- MIC ([4]; strain FDA-CDC AR-BANK#0078): 16 µg/mL
- Minimum inhibitory concentration [5, 10]: 8 µg/mL
- Minimum inhibitory concentration [5, 11]: 16 µg/mL
- Minimum inhibitory concentration [6]: 1 µg/mL
- Minimum inhibitory concentration [7, 10]: ≤0.03125 µg/mL
- Minimum inhibitory concentration [7, 11]: 0.25 µg/mL
- MIC ([8]; ATCCBAA1705, read-out: MIC, single substance (1-1-Na, QPX7728, CPM), strain ATCC BAA-1705, KPC-2, TEM, SHV, Class A): 32 µg/mL (≈ 144 µM)
- MIC ([8]; ATCCBAA1898, read-out: MIC, single substance (1-1-Na, QPX7728, CPM), strain ATCC BAA-1898, KPC-2, Class A): 32 µg/mL (≈ 144 µM)
- MIC ([8]; ATCCBAA1899, read-out: MIC, single substance (1-1-Na, QPX7728, CPM), strain ATCC BAA-1899, KPC-2, Class A): 32 µg/mL (≈ 144 µM)
- MIC ([8]; ATCCBAA2343, read-out: MIC, single substance (1-1-Na, QPX7728, CPM), strain ATCC BAA-2343, KPC, Class A): 32 µg/mL (≈ 144 µM)
- MIC ([8]; ATCCBAA2470, read-out: MIC, single substance (1-1-Na, QPX7728, CPM), strain ATCC BAA-2470, NDM-1, Class B): 16 µg/mL (≈ 72.1 µM)
- MIC ([8]; read-out: MIC, single substance (1-1-Na, QPX7728, CPM), strain ARLG-1127 (Urine), KPC, KPC-3, TEM, TEM-1, Class A): 64 µg/mL (≈ 288 µM)
- MIC ([8]; read-out: MIC, single substance (1-1-Na, QPX7728, CPM), strain ARLG-1195, CTM-1 group, SHV, NDM, Class A, B): 32 µg/mL (≈ 144 µM)
- MIC ([8]; read-out: MIC, single substance (1-1-Na, QPX7728, CPM), strain ARLG-1196, CTM-1 group, SHV, NDM, TEM, Class A, B): 32 µg/mL (≈ 144 µM)
- MIC, Cefepime + compound (8 ug/ml) ([8]; strain ARLG-1127 (Urine), KPC, KPC-3, TEM, TEM-1, Class A): ≤0.125 µg/mL
- MIC, Cefepime + compound (8 ug/ml) ([8]; strain ARLG-1195, CTM-1 group, SHV, NDM, Class A, B): ≤0.125 µg/mL
- MIC, Cefepime + compound (8 ug/ml) ([8]; strain ARLG-1196, CTM-1 group, SHV, NDM, TEM, Class A, B): ≤0.125 µg/mL
- MIC, Cefepime + compound (8 ug/ml) ([8]; strain ATCC BAA-1705, KPC-2, TEM, SHV, Class A): ≤0.125 µg/mL
- MIC, Cefepime + compound (8 ug/ml) ([8]; strain ATCC BAA-1898, KPC-2, Class A): <0.125 µg/mL
- MIC, Cefepime + compound (8 ug/ml) ([8]; strain ATCC BAA-1899, KPC-2, Class A): <0.125 µg/mL
- MIC, Cefepime + compound (8 ug/ml) ([8]; strain ATCC BAA-2343, KPC, Class A): ≤0.125 µg/mL
- MIC, Cefepime + compound (8 ug/ml) ([8]; strain ATCC BAA-2470, NDM-1, Class B): ≤0.125 µg/mL
- restore to cefepime antibacterial activity against cefepime-resistant Klebsiella pneumoniae ([8]; summary in words of Test Example 3 (sentence runs over b277-b278)): significantly
